Reference: US20070265278A1, “2-PHENYL-INDOLES AS PROSTAGLANDIN D2 RECEPTOR ANTAGONISTS” (Aventis Pharmaceuticals Inc., priority 2005, published 2007)

Molecular target: T1, DP receptor (Homo sapiens, UniProt Q13258)
T1 construct: using the human cell line LS174T, which expresses the endogenous DP receptor; endogenous in cells; host or cells: LS174T human cell line
T1 sequence (Q13258 1-359): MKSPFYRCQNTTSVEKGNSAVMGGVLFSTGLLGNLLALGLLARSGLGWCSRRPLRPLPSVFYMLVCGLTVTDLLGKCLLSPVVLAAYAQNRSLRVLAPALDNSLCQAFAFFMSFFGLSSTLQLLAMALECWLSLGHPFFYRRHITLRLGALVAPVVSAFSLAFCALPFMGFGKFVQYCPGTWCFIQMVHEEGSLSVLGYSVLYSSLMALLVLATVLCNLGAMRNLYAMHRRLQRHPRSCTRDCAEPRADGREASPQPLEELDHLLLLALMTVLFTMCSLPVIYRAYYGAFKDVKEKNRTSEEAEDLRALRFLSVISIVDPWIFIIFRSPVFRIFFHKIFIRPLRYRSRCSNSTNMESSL
Test: SPA cAMP assay in human LS174 T cells (human DP functional assay)
Type: cell-based
Settings: inhibition of PGD2 (15 nM)-stimulated cAMP, LS174T cells expressing endogenous DP receptor
Description: The inhibitory effects of the compounds according to the invention are assessed in a human DP functional assay. A cAMP assay is employed using the human cell line LS174T, which expresses the endogenous DP receptor. The protocol is similar to that described previously (Wright D H, Ford-Hutchinson A W, Chadee K, Metters K M, The human prostanoid DP receptor stimulates mucin secretion in LS174T cells, Br J Pharmacol. 131(8):1537-45 (2000)).
Protocol for SPA cAMP Assay in Human LS174 T Cells
• PGD2 (Cayman Chemical Cat#12010) • IBMX (Sigma Cat# 5879) • cAMP SPA direct screening assay system (Amersham code RPA 559) • 96-well cell plates (Wallac Cat# 1450-516) • Wallac 1450 Microplate Trilux scintillation counter (PerkinElmer) • Plate sealers • Eppendorf tubes • Dulbecco's Phosphate-Buffered Saline (PBS) (Invitrogen Cat#14040-133) • Distilled water • Vortex • Magnetic stirrer and stirrer bars Reagent Preparation:
All reagents should be allowed to equilibrate to room temperature before reconstitution.
Transfer the contents of the bottle to a 500 mL graduated cylinder by repeated washing with distilled water. Adjust the final volume to 500 mL with distilled water and mix thoroughly.
Dissolve each of the lysis reagents 1 and 2 in 200 mL assay buffer respectively. Leave at room temperature for 20 minutes to dissolve.
Add 30 mL of lysis buffer 2 to the bottle. Gently shake the bottle for 5 minutes.
Add 15 mL of lysis buffer 2 to each vial, and gently mix until the contents are completely dissolved.
Add 14 mL lysis buffer 2 to each vial and gently mix until the contents are completely dissolved.
Preparation of Immunoreagent
• 1) Add equal volumes of tracer, antiserum and SPA anti-rabbit reagent to a bottle, ensuring that a sufficient volume of this mixture is prepared for the desired number of wells (150 μL/well). • 2) Mix thoroughly. • 3) This immunoreagent solution should be freshly prepared before each assay and not re-used. Standard • 1) Add 1 mL lysis buffer 1 and gently mix until contents are completely dissolved. • 2) The final solution contains cAMP at a concentration of 512 pmol/mL. • 3) Label 7 polypropylene or polystyrene tubes, 0.2 pmol, 0.4 pmol, 0.8 pmol, 1.6 pmol, 3.2 pmol, 6.4 pmol and 12.8 pmol. • 4) Pipette 500 μL of lysis buffer 1 into all the tubes. • 5) Into the 12.8 pmol tube pipette 500 μL of stock standard (512 pmol/mL) and mix thoroughly. Transfer 500 μL from 12.8 pmol tube to the 6.4 pmol tube and mix thoroughly. Repeat this doubling dilution successively with the remaining tubes.
6) 50 μL aliquots in duplicate from each serial dilution and the stock standard will give rise to 8 standard levels of cAMP ranging from 0.2-25.6 pmol standard
Add 50 μL of […] IBMX into 100 mL PBS to make a final concentration of 100 μM and sonicate at 30° C. for 20 minutes.
Dissolve 1 mg PGD2 (FW, 352.5) in 284 μL DMSO to make 10 mM stock solution and store at […]. Before each assay, it is freshly prepared. Add 3 μL of 10 mM stock solution to 20 mL DMSO, mix it thoroughly, and transfer 10 mL to 40 mL PBS.
Compound dilution is carried out in Biomex 2000 (Beckman) using Method 1_cAMP DP 11 points.
5 μL of each compound from the 10 mM stock compound plates is transferred to the wells of a 96-well plate respectively as below.
Fill the plate with 45 μL of DMSO except column 7 is filled with 28 μL DMSO. Pipette column 1 thoroughly, and transfer 12 μL into column 7 parallel. Perform 1:10 serial dilution from column 1 to column 6 and from column 7 to column 11 by transfer 5 μL to 45 μL DMSO to make following concentrations:
Fill a new 96-well plate with 247.5 μL of compound dilution buffer. Transfer 2.5 μL of serially diluted compounds from above plate to the new plate (1:100 dilution) as following:
Cell Growth • 1. LS174 T are always grown in MEM (ATCC Cat# 30-2003), 10% FBS (ATCC Cat# 30-2020) and additional 2 mM L-glutamine, at 37° C. and 5% CO2. • 2. Warm 0.05% Trypsin and Versine (Invitrogen Cat# 25300-054) at 37° C. water bath. • 3. […]

COC(=O)[C@@H](NC(=O)Cc1c(-c2ccc(Cl)c(S(=O)(=O)NC3CCCCC3)c2)[nH]c2ccccc12)C(C)C [Example 3(a), (S)-2-{2-[2-(4-chloro-3-cyclohexylsulfamoyl-phenyl)-1H-indol-3-yl]-acetylamino}-3-methyl-butyric acid methyl ester]
IC50: 160 nM

O=C(Cc1c(-c2ccc(Cl)c(S(=O)(=O)NC3CCCCC3)c2)[nH]c2ccccc12)NS(=O)(=O)c1ccccc1 [Example 6, 5-[3-(2-Benzenesulfonylamino-2-oxo-ethyl)-1H-indol-2-yl]-2-chloro-N-cyclohexyl benzenesulfonamide]
IC50: 5 nM

NC(=O)Cc1c(-c2ccc(Cl)c(S(=O)(=O)NC3CCCCC3)c2)[nH]c2ccccc12 [Example 7(a), 2-[2-(4-Chloro-3-cyclohexylsulfamoyl-phenyl)-1H-indol-3-yl]-acetamide]
IC50: 132 nM

Cn1c(-c2ccc(Cl)c(S(=O)(=O)NC3CCCCC3)c2)c(CCO)c2ccccc21 [Example 9, 2-Chloro-N-cyclohexyl-5-[3-(2-hydroxy-ethyl)-1-methyl-1H-indol-2-yl]-benzenesulfonamide]
IC50: 8710 nM

COc1ccc2[nH]c(-c3ccc(Cl)c(S(=O)(=O)NC4CCCCC4)c3)c(CC(=O)O)c2c1 [Example 10(a), [2-(4-Chloro-3-cyclohexylsulfamoyl-phenyl)-5-methoxy-1H-indol-3-yl]-acetic acid]
IC50: 3 nM

O=C(O)Cc1c(-c2ccc(Cl)c(S(=O)(=O)NC3CCCCC3)c2)[nH]c2ccc(O)cc12 [Example 10(c), [2-(4-Chloro-3-cyclohexylsulfamoyl-phenyl)-5-hydroxy-1H-indol-3-yl]-acetic acid]
IC50: 4.2 nM

O=C(O)Cc1c(-c2ccc(Cl)c(S(=O)(=O)NC3CCCCC3)c2)[nH]c2cc(Cl)ccc12 [Example 10(d), [6-Chloro-2-(4-chloro-3-cyclohexylsulfamoyl-phenyl)-1H-indol-3-yl]-acetic acid]
IC50: 1 nM

CN(C1CCCCC1)S(=O)(=O)c1cccc(-c2[nH]c3ccccc3c2CC(=O)O)c1 [Example 10(e), {2-[3-(Cyclohexyl-methyl-sulfamoyl)-phenyl]-1H-indol-3-yl}-acetic acid]
IC50: 346 nM

O=C(O)Cc1c(-c2cccc(S(=O)(=O)NC3CCCCC3)c2)[nH]c2ccccc12 [Example 10(f), [2-(3-Cyclohexylsulfamoyl-phenyl)-1H-indol-3-yl]-acetic acid]
IC50: 106 nM

O=C(O)Cc1c(-c2ccc(S(=O)(=O)NC3CCCCC3)cc2)[nH]c2ccccc12 [Example 10(h), [2-(4-Cyclohexylsulfamoyl-phenyl)-1H-indol-3-yl]-acetic acid]
IC50: 1160 nM

COc1ccc(-c2[nH]c3ccccc3c2CC(=O)O)cc1S(=O)(=O)NC1CCCCC1 [Example 10(i), [2-(3-Cyclohexylsulfamoyl-4-methoxy-phenyl)-1H-indol-3-yl]-acetic acid]
IC50: 63 nM

O=C(O)Cc1c(-c2ccc(S(=O)(=O)NC3CCCCC3)c(Cl)c2)[nH]c2ccccc12 [Example 10(j), [2-(3-Chloro-4-cyclohexylsulfamoyl-phenyl)-1H-indol-3-yl]-acetic acid]
IC50: 1220 nM

Cc1ccc(-c2[nH]c3ccccc3c2CC(=O)O)cc1S(=O)(=O)NC1CCCCC1 [Example 10(k), [2-(3-Cyclohexylsulfamoyl-4-methyl-phenyl)-1H-indol-3-yl]-acetic acid]
IC50: 2 nM

O=C(O)Cc1c(-c2cc(C(F)(F)F)cc(S(=O)(=O)NC3CCCCC3)c2)[nH]c2ccccc12 [Example 12, [2-(3-cyclohexylsulfamoyl-5-trifluoromethyl-phenyl)-1H-indol-3-yl]-acetic acid]
IC50: 232 nM

O=C(O)Cc1c(-c2ccc(Cl)c(NS(=O)(=O)c3ccccc3)c2)[nH]c2ccccc12 [Example 13, [2-(3-benzenesulfonylamino-4-chlorophenyl)-1H-indol-3-yl]-acetic acid]
IC50: 39 nM

O=C(O)Cc1c(-c2ccc(Cl)c(NC(=O)C3CCCCC3)c2)[nH]c2ccccc12 [Example 14, {2-[4-chloro-3-(cyclohexanecarbonyl-amino)-phenyl]-1H-indol-3-yl}-acetic acid]
IC50: 5860 nM

O=C(O)c1c(-c2ccc(Cl)c(S(=O)(=O)NC3CCCCC3)c2)[nH]c2ccccc12 [Example 15, 2-(4-Chloro-3-cyclohexylsulfamoyl-phenyl)-1H-indole-3-carboxylic acid]
IC50: 741 nM

O=C(O)c1ccc2cc(-c3ccc(Cl)c(S(=O)(=O)NC4CCCCC4)c3)[nH]c2c1 [Example 16, 2-(4-Chloro-3-cyclohexylsulfamoyl-phenyl)-1H-indole-6-carboxylic acid]
IC50: 510 nM
